No end group written: not given here.
Legend:
[1] = test system: TLR4; experiment: LPS-induced cytokine secretion by mouse macrophages (ELISA/multiplex); format: cell-based; settings: 5 or 20 μM peptide; LPS 100 ng/ml; supernatants 24 h
Procedure: Cytokine secretion was measured in supernatant samples collected at 6 or 24 h time points and stored at −80° C. Samples were analyzed by a multiplex assay at the University of Maryland Baltimore Cytokine Core Facility using a Luminex 100 reader and Softmax Pro software, or by ELISA kits for mouse IL-6 or TNF-α from BioLegend (San Diego, Calif.) and LT-4000 microplate reader.
A total of 2×10^6 cells was plated in 12-well plates and treated with peptides for 30 min prior to LPS stimulation. TNF-α, IL-1β, IL-6, and IFN-β were measured using ELISA kits from BioLegend (San Diego, Calif.), as recommended by the manufacturer.

[2] = test system: TLR4; experiment: LPS-induced cytokine mRNA expression in mouse macrophages (real-time RT-PCR); format: cell-based
Procedure: (§1) C57BL/6J mice were obtained from The Jackson Laboratory (Bar Harbor, Me.). Primary peritoneal macrophages were obtained by peritoneal lavage 4 days after intraperitoneal injection (3 ml) of sterile 3% thioglycolate broth. Washed cells were resuspended in RPMI 1640 which contained 2% FBS, 1% penicillin:streptomycin and 2 mM L-glutamine. After plating, cells were incubated overnight at 37° C. and then washed with PBS to remove non-adherent cells. Cells were exposed to peptides 30 min before stimulation with a TLR agonist.
Total cellular RNA was isolated using Tripure from Roche (San Francisco, Calif.) following manufacture's protocol. RNA was then reverse transcribed using AMV Reverse Transcriptase from Promega (Madison, Wis.) with poly-T priming as per manufacturer's directions. cDNA was then quantified by real-time PCR using Applied Biosystems Fast SYBR Green PCR Master Mix and an ABI Prism 7500HT cycler. Primers used for detection: hypoxanthine phosphoribosyltransferase (HPRT) (forward: […] (SEQ ID NO:51), reverse: […] (SEQ ID NO:52)), TNFα (forward: […] (SEQ ID NO:53), reverse: […] (SEQ ID NO:54)), IL-1β (forward: […] (SEQ ID NO:55), reverse: […] (SEQ ID NO:56)), IFNβ (forward: […] (SEQ ID NO:57), reverse: CTCGGACCACCATCCAGG (SEQ ID NO:58)) and RANTES (forward: […] (SEQ ID NO:59), reverse: […] (SEQ ID NO:60)). The primers were designed using Primer Express 2.0 (Applied Biosystems). Using HPRT as reference, the ΔCt method was used to calculate relative gene expression. One-way ANOVA was preformed, as well as Dunnett's multiple comparison post hoc test with a p≦0.01 selected as the level of significance.
Total RNA was isolated with Nucleospin RNA II kits (Macherey-Nagel, Bethlehem, Pa.), followed by DNase digestion. cDNA was synthesized from 1 μg RNA using Goscript transcriptase (Promega), and subjected to real-time PCR with gene-specific primers for HPRT, TNF-α, IL-1β, IFNβ, and RANTES on H7900 ABI system using Fast SYBR Green master mix (Applied Biosystems, Foster City, Calif.).
To evaluate peptide-inhibitory activities, we first measured LPS-induced cytokine mRNA expression. […] […] Decoy peptide TM4 is derived from the BB loop of TRAM TIR; we previously identified this peptide as an effective TLR4 inhibitor (19).

[3] = test system: TLR4; experiment: Inhibition of TLR4 signaling in thioglycollate-elicited mouse macrophages (effective concentration, overall inhibitory activity); format: cell-based; settings: TLR4 pathway; thioglycollate-elicited mouse macrophages
Procedure: as §1
TIRAP/Mal functions to facilitate MyD88 recruitment to the activated TLR4 and TLR2, presumably through a simultaneous interaction with receptor and MyD88 TIR domains. Therefore, multiple TIR:TIR interaction sites are expected in TIRAP TIR. The decoy peptide approach was used to obtain leads on the functional protein-protein interfaces within TIRAP/Mal, a TLR adapter protein. To this end, eleven TIRAP TIR-derived decoy peptides were designed to be structurally homologous to the TLR4 TIR-derived decoy peptides used previously (1), so that each peptide represents a non-fragmented patch of the TIRAP TIR surface, with the entire domain encompassed by the set of peptides. The TIRAP TIR-derived decoy peptides were synthesized in tandem with the cell-permeating sequence of Antennapedia homeodomain (21) and each peptide was tested for the ability to inhibit TLR4 and TLR2 signaling in primary mouse macrophages. Peptide sequences and the structural regions they represent are shown in reference (30).
C57BL/6J mice were obtained from The Jackson Laboratory (BarHarbor, Me.). Harvesting, culturing, and stimulation of peritoneal macrophages were described in previous publications (1, 18, 19). Escherichia coli K235 LPS (34) was used at the final concentration of 100 ng/ml. The 2,3-bis(palmitoyloxy)-(2-RS)-propyl-N-palmitoyl-(R)-Cys-Ser-Lys4-OH (P3C) and S[2,3-bis(palmitoyloxy)-(2-RS)-propyl]-[R]-Cys-Ser-Lys4-OH (P2C) (EMC Microcollections, Tubingen, Germany) were used at 500 and 50 ng/ml, respectively. Oligonucleotide (ODN) 1668 and low m.w. polyinosinic-polycytidylic acid [poly(I:C)] in complex with LyoVec were obtained from InvivoGen; these agonists were used at 2.5 μM and 400 ng/ml, respectively.

[4] = test system: TLR4; experiment: LPS-induced STAT1-Y701 phosphorylation in macrophages (immunoblotting); format: cell-based, mouse; settings: 2 h after LPS
[5] = test system: TLR4; experiment: LPS-induced MAPK (ERK, JNK, p38) activation in mouse macrophages (Western analysis); format: cell-based
Procedure: Cellular protein extracts were isolated by addition of 240 μL per well cold lysate buffer (20 mM Tris, 50 mM NaCl, 1.5 mM MgCl2, 2 mM EDTA, 10 mM NaF, 2 Mm DTT, 1 mM Na3VO4, 1% Triton). Cells were incubated with lysis solution for 30 min on agitator at 4° C. Lysate was then collected and centrifuged at 14,000 g for 10 minutes at 4° C. After quantification using BioRad protein assay, protein samples were added to Laemmli buffer and then boiled for 10 min. Samples were then resolved by SDS-10% PAGE in Tris/glycine/SDS buffer (25 mM Tris, 250 mM glycine, 0.1% SDS), and transferred onto Immobilon P transfer membranes (Millipore, Bedford, Mass.) (100 V, 1.5 h, 4° C.). Membranes were blocked for 1 h in TBS-T (20 mM Tris-HCl, 150 mM NaCl, 0.1% Tween 20) containing 5% nonfat milk, then probed for overnight at 4° C. with the respective antibodies (Abs) (dilution 1:1000 in TBS-T with 2% BSA). After washing in TBS-T, membranes were incubated with secondary HRP-conjugated, donkey anti-rabbit IgG (1:10,000 dilution in TBS-T with 5% nonfat milk) for 1 h at room temperature. Membranes washed five times in TBS-T before development with ECL reagents (GE Healthcare) according to manufacturer's directions.
HEK293T cells were transfected with indicated plasmids using Superfect Transfection Reagent (Qiagen). Twenty-four hours posttransfection, the cells were lysed using the buffer containing 20 mM HEPES (pH 7.4), 150 mM NaCl, 10 mM NaF, 2 mM Na3VO4, 1 mM EDTA, 1 mM EGTA, 0.5% Triton X-100, 0.1 M DTT, 1 mM PMSF, and protease inhibitor mixture (Roche, Indianapolis, Ind.). Rabbit Ab against phospho-ERK, phospho-JNK, MyD88 (D80F5), STAT1-Y701, total STAT1, and GAPDH were purchased from Cell Signaling Technology (Beverly, Mass.). Rabbit anti-phospho-p38 Ab was purchased from Promega (Madison, Wis.). Goat anti-TLR4 (M−16), rabbit anti-TLR4 (H-80), anti-HA-HRP (F-7), and rabbit anti-b-actin Ab were purchased from Santa Cruz Biotechnology. Mouse anti-Flag M2 and rabbit anti-HA Ab were from Sigma-Aldrich. GFP Ab (A1122) was from Invitrogen. Protein was quantified using Bio-Rad protein quantification kit. Equal amount of protein was loaded and analyzed by 10% SDS-PAGE and immunoblotting. The cell extracts containing equal amount of protein were incubated with 1 μg Ab for 2 h, followed by 4-h incubation with 25 μl protein G agarose beads (Roche); the beads were then washed four times with lysis buffer, boiled in […] sample loading buffer, and analyzed by immunoblotting.
We next examined whether TRAM peptides inhibit the TLR4-mediated p38, ERK, and JNK MAPK activation. Murine macrophages pretreated with peptides for 30 min were challenged with LPS. Cell lysates were collected 30 min post-stimulation and analyzed for MAPK phosphorylation by Western analysis. Consistent with peptide effects on steady-state mRNA, both TM4 and TM6 inhibited activation of all three MAPKs (FIG. 5C). The inhibition of MAPKs by TM4 or TM6 was long lasting; it persisted for at least 1 h after LPS stimulation (data not shown). To characterize further the effects of TRAM peptides on MAPKs, murine macrophages were treated with TRAM peptides, but not challenged by LPS.

[6] = test system: TLR4; settings: from references (1, 22); cited from earlier work

Sequence | LPS-induced cytokine secretion [1] | LPS-induced (TLR4-mediated) cytokine mRNA expression ([2]; 5 or 20 μM peptide 30 min before LPS, 1 or 5 h) | Effective conc. [3] [µM] | LPS-induced STAT1-Y701 phosphorylation [4] | LPS-induced p38, ERK, and JNK MAPK activation ([5]; lysates 30 min after LPS) | Inhibition of TLR4 (overall) [6] | LPS-induced cytokine mRNA induction ([2]; peritoneal macrophages (FIG. 14A)) | LPS-induced activation of ERK and JNK MAPKs ([5]; peritoneal macrophages (FIG. 14B))
RQIKIWFQNRRMKWKKCEEFQVPGRGELH [TF4] | inhibit | inhibit | 20 | inhibit | inhibit | – | – | –
RQIKIWFQNRRMKWKKLHYRDFIPGVAIAA [4R4/4BB] | – | – | 20 | – | – | quite potent inhibitor | potently inhibit | potently inhibit
